Test results published in patent US8283358B2, “N-sulfonamido polycyclic pyrazolyl compounds” (Elan Pharmaceuticals, Inc., priority 2008, dated 2012).
Where two headings read alike, the source gives them in different places.

Target: T1, gamma-secretase (partially purified extract of IMR-32 cell membranes; substrate MBP-C125 Swe fusion protein, cleavage at the Aβ40 site) (Homo sapiens, UniProt P49768)
T1 construct: a partially purified extract of IMR-32 cell membranes as the gamma-secretase enzyme preparation; endogenous in cells; host or cells: IMR-32 cell membranes, partially purified extract
Assay: Gamma-secretase APP enzyme assay (Example A)
Format: biochemical
Conditions: class symbols, assay described in Example A
Text: The gamma-secretase APP enzyme assay was designed to measure the specific proteolytic cleavage of an APP substrate (MBP-C125 Swe fusion protein) at the Aβ40 site. […] This assay involved two steps beginning with the enzymatic reaction generating a cleavage product that was captured with an immobilized antibody specific for the neo-epitope Aβ40 site. The captured cleavage product was then detected in a sandwich ELISA assay with a biotinylated reporter antibody that is specific to Aβ(17-28). Streptavidin-linked alkaline phosphatase was then added that would generate a fluorescent signal proportional to the amount of cleavage product.
This warmed solution of BigCHAPS (N,N-Bis(3-D-gluconamidopropyl)cholamide) detergent was used to dissolve Brain Extract Type-V (lipid containing a minimum of 40% phosphatidylethanolamine) from Sigma (St. Louis, Mo.) to a concentration of 8 mg/ml. This solution containing BigCHAPS and lipid at 8 mg/ml is then diluted to 0.53 mg/ml lipid with a pre-warmed solution of Hepes and sodium chloride.
Gamma-secretase was then added to a 96-well micro-titre plate and then incubated with various concentrations of inhibitor for 30 minutes at 37° C. MBPC125 substrate was then added to initiate the reaction that would run for two hours at 37° C. The reaction was quenched with the addition of SDS to a final concentration of 0.1% and then 100 μl of the reaction mixture was transferred to a capture ELISA plate and incubated overnight at 4° C. Detection of the cleavage product was performed using a standard sandwich ELISA assay and quantified using a six point standard curve.

| IC50 (read-out: γAPP IC50) [nM] | SMILES | IC50 (γAPP IC50 (nM)) [nM] |
| --- | --- | --- |
| < 100 | O=S(=O)(c1ccc(C(F)(F)F)cc1)N1C2Cc3[nH]ncc3C1c1cccc(-c3ccc(F)cc3)c1C2 (racemic) [compound 162] |  |
| 100 to 499 | O=S(=O)(c1ccc(C(F)(F)F)cc1)N1C2Cc3[nH]ncc3C1CC(c1ccc(-n3cncn3)cc1)C2 (racemic) [compound 147] |  |
| 100 to 499 | O=S(=O)(c1ccc(C(F)(F)F)nc1)N1C2Cc3[nH]ncc3C1c1cc(Cl)ccc12 (centres unmarked) [compound 221] |  |
| < 100 | O=S(=O)(c1ccc(C(F)(F)F)nc1)N1C2Cc3[nH]ncc3C1c1cccc(CF)c12 (racemic) [compound 257] |  |
| < 100 | O=S(=O)(c1ccc(C(F)(F)F)cc1)N1C2Cc3[nH]ncc3C1c1ccc3ccccc3c12 (centres unmarked) [compound 160] |  |
|  | O=S(=O)(c1ccc(C(F)(F)F)nc1)N1C2Cc3n[nH]cc3C1c1ncsc12 (centres unmarked) [compound 188] | > 1000 |
| < 100 | O=S(=O)(c1ccc(C(F)(F)F)cc1)N1C2Cc3[nH]ncc3C1c1ccccc12 (racemic) [compound 52] |  |
| > 1000 | Cc1nc(C2CC3Cc4[nH]ncc4C(C2)N3S(=O)(=O)c2ccc(C(F)(F)F)cc2)n[nH]1 (racemic) [compound 85] |  |
| < 100 | CC12C(=O)c3[nH]ncc3C(c3ccccc31)N2S(=O)(=O)c1ccc(C(F)(F)F)nc1 (centres unmarked) [compound 275] |  |
| 100 to 499 | O=S(=O)(c1ccc(C(F)(F)F)cc1)N1C2Cc3[nH]ncc3C1C=C2c1ccc(F)cc1 (centres unmarked) [compound 60] |  |
| < 100 | CC12C(=O)c3[nH]ncc3C(c3ccccc31)N2S(=O)(=O)c1ccc(C(F)(F)F)cc1 (centres unmarked) [compound 277] |  |
|  | O=S(=O)(c1ccc(C(F)(F)F)nc1)N1C2Cc3[nH]ncc3C1c1ncc(F)cc12 (single isomer, unassigned) [compound 259] | > 1000 |
| 100 to 499 | O=S(=O)(c1ccc(C(F)(F)F)cc1)N1C2Cc3[nH]ncc3C1c1ccc3ccccc3c12 (centres unmarked) [compound 169] |  |
|  | Cn1ncc2c1C1Cc3[nH]ncc3C2N1S(=O)(=O)c1ccc(C(F)(F)F)nc1 (racemic) [compound 204] | < 100 |
| < 100 | O=C1c2n[nH]cc2C2c3ccccc3C1N2S(=O)(=O)c1ccc(C(F)(F)F)nc1 (centres unmarked) [compound 200] |  |
| < 100 | O=S(=O)(c1ccc(C(F)(F)F)cc1)N1C2Cc3cccc(F)c3C1Cc1n[nH]cc12 (centres unmarked) [compound 190] |  |
| < 100 | O=C1c2n[nH]cc2C2c3cccc(F)c3C1N2S(=O)(=O)c1ccc(C(F)(F)F)cc1 (centres unmarked) [compound 104] |  |
| > 1000 | NC1CCCCC1Nc1ccc(C2CC3Cc4n[nH]cc4C(C2)N3S(=O)(=O)c2ccc(C(F)(F)F)cc2)cc1 (centres unmarked) [compound 117] |  |
| 100 to 499 | O=S(=O)(c1ccc(C(F)(F)F)nc1)N1C2Cc3n[nH]cc3C1c1nc(-c3ccc(F)cc3)ccc12 (centres unmarked) [compound 254] |  |
| 500 to 999 | O=S(=O)(c1ccc(C(F)(F)F)nc1)N1C2Cc3[nH]ncc3C1c1cc(F)ccc12 (single isomer, unassigned) [compound 179] |  |
| > 1000 | O=S(=O)(c1ccc(C(F)(F)F)cc1)N1C2Cc3[nH]ncc3C1c1cccnc12 (single isomer, unassigned) [compound 99] |  |
| < 100 | O=S(=O)(c1ccc(C(F)(F)F)nc1)N1C2Cc3n[nH]cc3C1c1cc(F)c(F)cc12 (racemic) [compound 105] |  |

| IC50 (read-out: γAPP IC50) [nM] | SMILES | IC50 (γAPP IC50 (nM)) [nM] |
| --- | --- | --- |
| < 100 | COC(=O)CCCNc1ccc(C2CC3Cc4n[nH]cc4C(C2)N3S(=O)(=O)c2ccc(C(F)(F)F)cc2)cc1 (centres unmarked) [compound 142] |  |
| 100 to 499 | O=S(=O)(c1ccc(C(F)(F)F)cc1)N1C2Cc3[nH]ncc3C1c1c2ccc2ccccc12 (centres unmarked) [compound 171] |  |
| < 100 | O=S(=O)(c1ccc(C(F)(F)F)cc1)N1C2Cc3[nH]ncc3C1c1c2ccc2ccccc12 (centres unmarked) [compound 170] |  |
| 100 to 499 | O=S(=O)(c1ccc(C(F)(F)F)nc1)N1C2Cc3n[nH]cc3C1c1c(F)ccc(F)c12 (centres unmarked) [compound 149] |  |
| < 100 | O=S(=O)(c1ccc(C(F)(F)F)cc1)N1C2Cc3[nH]ncc3C1c1ncccc12 (single isomer, unassigned) [compound 101] |  |
| < 100 | Cc1cc(F)cc2c1C1c3c[nH]nc3CC2N1S(=O)(=O)c1ccc(C(F)(F)F)nc1 (centres unmarked) [compound 159] |  |
| < 100 | N#Cc1ccc2c(c1)C1Cc3n[nH]cc3C2N1S(=O)(=O)c1ccc(C(F)(F)F)nc1 (centres unmarked) [compound 167] |  |
| > 1000 | COC(=O)c1ccc2c(c1)C1c3cn[nH]c3CC2N1S(=O)(=O)c1ccc(C(F)(F)F)nc1 (centres unmarked) [compound 203] |  |
| < 100 | O=S(=O)(c1ccc(C(F)(F)F)cc1)N1C2C=C(C3CC3)C1c1c[nH]nc1C2 (centres unmarked) [compound 44] |  |
| < 100 | O=S(=O)(c1ccc(C(F)(F)F)nc1)N1[C@H]2c3cn[nH]c3[C@H](F)[C@@H]1c1cccc(F)c12 [compound 267] |  |
| < 100 | O=S(=O)(c1ccc(C(F)(F)F)nc1)N1C2Cc3[nH]ncc3C1c1ccccc12 (centres unmarked) [compound 197] |  |
| < 100 | O=S(=O)(c1ccc(C(F)(F)F)nc1)N1C2Cc3n[nH]cc3C1c1cccc(C3CC3)c1C2 (centres unmarked) [compound 134] |  |
| < 100 | COC(=O)c1cccc2c1C1Cc3[nH]ncc3C2N1S(=O)(=O)c1ccc(C(F)(F)F)nc1 (racemic) [compound 220] |  |
| > 1000 | O=S(=O)(c1ccc(C(F)(F)F)nc1)N1C2Cc3n[nH]cc3C1c1cc(F)c(F)cc12 (single isomer, unassigned) [compound 110] |  |
| < 100 | O=S(=O)(c1ccc(C(F)(F)F)cc1)N1C2=Cc3c(-c4cccc(C(F)(F)F)c4)cccc3C1Cc1n[nH]cc12 (centres unmarked) [compound 177] |  |
| < 100 | COC(=O)c1cccc2c1C1Cc3[nH]ncc3C2N1S(=O)(=O)C1=CC=C(C(F)(F)F)NC1 (racemic) [compound 253] |  |
| < 100 | O=S(=O)(c1ccc(Cl)cc1)N1C2Cc3[nH]ncc3C1CC(c1c[nH]nn1)C2 (racemic) [compound 93] |  |
| 100 to 499 | O=S(=O)(c1ccc(C(F)(F)F)nc1)N1C2c3c[nH]nc3[C@@H](O)C1c1c(F)cccc12 (some centres unmarked) [compound 216] |  |
| < 100 | O=S(=O)(c1ccc(C(F)(F)F)nc1)N1C2c3cn[nH]c3C(F)(F)C1c1cccc(F)c12 (centres unmarked) [compound 166] |  |
| < 100 | O=S(=O)(c1ccc(C(F)(F)F)cc1)N1C2Cc3n[nH]cc3C1CC(c1ccc(Br)cc1)C2 (centres unmarked) [compound 106] |  |
| 100 to 499 | O=C1c2[nH]ncc2C2c3c(F)cccc3C1N2S(=O)(=O)c1ccc(Cl)cc1 (centres unmarked) [compound 243] |  |

| SMILES | IC50 (read-out: γAPP IC50) [nM] | IC50 (γAPP IC50 (nM)) [nM] |
| --- | --- | --- |
| O=S(=O)(c1ccc(C(F)(F)F)nc1)N1C2Cc3[nH]ncc3C1c1cc(-c3ccc(F)cc3)ccc12 (centres unmarked) [compound 241] | < 100 |  |
| O=C1c2[nH]ncc2C2c3c(F)cccc3C1N2S(=O)(=O)c1ccc(C(F)(F)F)nc1 (centres unmarked) [compound 161] | < 100 |  |
| O=C1c2[nH]ncc2C2c3cccc(F)c3C1N2S(=O)(=O)c1ccc(C(F)(F)F)nc1 (single isomer, unassigned) [compound 193] | 500 to 999 |  |
| Cc1cc(C2CC3Cc4[nH]ncc4C(C2)N3S(=O)(=O)c2ccc(Cl)cc2)on1 (racemic) [compound 76] | < 100 |  |
| O=S(=O)(c1ccc(C(F)(F)F)nc1)N1C2Cc3[nH]ncc3C1c1cc(-c3ccc(F)cc3)ccc12 (single isomer, unassigned) [compound 245] | 100 to 499 |  |
| O=S(=O)(c1ccc(C(F)(F)F)cc1)N1C2Cc3[nH]ncc3C1c1cccc(-c3cccc(C(F)(F)F)c3)c1C2 (racemic) [compound 178] | < 100 |  |
| O=S(=O)(c1ccc(C(F)(F)F)cc1)N1C2c3cn[nH]c3C(F)C1c1cccc(F)c12 (single isomer, unassigned) [compound 262] | > 1000 |  |
